Data as given in patent US20220017516A1, “LOX INHIBITORS” (THE INSTITUTE OF CANCER RESEARCH: ROYAL CANCER HOSPITAL, priority 2018, published 2022).

Experiments:
Assay type in all cases: in vivo, mice
[1] = test system: MDA-MB-231 human breast adenocarcinoma; assay: MDA-MB-231 xenografts, primary tumour volume; details: T/C of average tumour volume; 200 mg/kg po qd; p<0.05
Procedure: (§1) All procedures involving animals were approved by the Animal Welfare and Ethical Review Body of the Institute of Cancer Research and Cancer Research UK Manchester Institute in accordance with National Home Office regulations under the Animals (Scientific Procedures) Act 1986 and according to the guidelines of the Committee of the National Cancer Research Institute Tumour size was determined by caliper measurements of tumour length, width and depth and volume was calculated as volume=0.5236×length×width×depth (mm).
MDA-MB-231 xenografts. […] Tumours and weights are measured twice weekly using calipers and the animals can be imaged using non invasive method by bioluminescence using IVIS 200 imaging machine, weekly using 150 mg/kg luciferin administrate intraperitoneal or subcutaneous. […] Frozen samples kept at −80 degree centigrade until being analyzed and the fixed samples stained according to desired marker.
(§2) For therapeutic efficacy assessment, the ratio of average tumour volume between compound treated and vehicle control treated (T/C) is calculated. […] The efficacy of LOX inhibitors described in this invention, as measured by T/C in breast cancer models is shown in Table 4 and is significant (p<0.05) for all the data presented.

[2] = test system: MMTV-PyMT mammary tumours; assay: MMTV-PyMT transgenic mouse breast cancer model, primary tumour volume; details: T/C of average tumour volume; 200 mg/kg po qd; p<0.05
Procedure: as §1
MMTV-PyMT (Guy et al, 1992) (FVB) female mice were randomized by non-statistical methods to LOX inhibitor treatment groups from day 70 post-birth, when animals had no detectable tumour. Mice were treated daily by oral gavage with LOX inhibitor in vehicle, or daily vehicle (5% DMSO/2.5% Tween20 in water) by oral gavage. Tumour size was determined unblinded by caliper measurements of tumour length, width and depth and volume was calculated as 0.5236×length×width×depth (mm). […]
as §2

[3] = test system: MMTV-PyMT lung metastases; assay: MMTV-PyMT transgenic mouse breast cancer model, lung metastases quantification; details: T/C of average lung metastases number; 200 mg/kg po qd; p<0.05
Procedure: MMTV-PyMT (Guy et al, 1992) (FVB) female mice were randomized by non-statistical methods to LOX inhibitor treatment groups from day 70 post-birth, when animals had no detectable tumour. Mice were treated daily by oral gavage with LOX inhibitor in vehicle, or daily vehicle (5% DMSO/2.5% Tween20 in water) by oral gavage. Tumour size was determined unblinded by caliper measurements of tumour length, width and depth and volume was calculated as 0.5236×length×width×depth (mm). In all experiments, mice were humanely killed and mammary tumours and lungs were collected when the primary tumours reached ethical limits or signs of ill health.
For lung metastases quantification, all mouse tissue samples were fixed in 10% formalin (Sigma) and embedded in paraffin. Samples were sectioned and hematoxylin and eosin (H&E) stained. Samples were imaged with a Leica SCN400 slide scanner. […] Lung metastases number was counted and area was measured using ImageScope. […] The ratio of average metastases surface between compound treated and vehicle control treated (T/C) is calculated. The ratio of average metastases numbers between compound treated and vehicle control treated (T/C) is also calculated. […] The antimetastatic efficacy of LOX inhibitors described in this invention, as measured by T/C in a model of breast cancer metastasising to lungs is shown in Table 4 and is significant (p<0.05) for all the data presented.

In the case of CCOc1ccc(N2C[C@@H]3C[C@H]2CN3C(=O)CS(=O)(=O)CCN)cc1 [drawing 226], the “MDA-MB-231 human breast adenocarcinoma - primary tumour (T/C)” value [1] is reported as 0.54, the “MMT-PyMT breast transgenic model - primary tumour (T/C)” value [2] is reported as 0.6 and the “MMT-PyMT breast transgenic model - metastases a) Count (T/C)” value [3] is reported as “a) 0.14”.
